Measured values reported in patent US11944665B2, “Methods and compositions for modulating lymphatic vessels in the central nervous system” (University of Virginia Patent Foundation, priority 2016, dated 2024).

How the values were obtained:
[1] = tested on: APPSwe transgenic mice; assay: Visudyne ablation in APPSwe mice, Morris water maze (Example 10); assay type: in vivo; settings: APPSwe mice 6-7 months-old, ablation every 2 weeks for 1 month, vs vehicle
Description: Adult (6-7 months-old) APPSwe transgenic mice were anesthetized, injected with visudyne (ICM), or vehicle as a control, and submitted to a step of transcranial photoconversion, every 2 weeks for a total of 1 month. […] Results are presented as mean±s.e.m.; n=9 per group; *P<0.05, two-way ANOVA—Repeated Measures, with Bonferroni post hoc test.

[2] = tested on: meningeal lymphatic vessels; assay: EAE (MOG35-55) after Visudyne meningeal lymphatic ablation; assay type: in vivo, C57b16 mice
Method: FIG. 22 is a graph showing ablation of the meningeal lymphatic decreases EAE score. Adult C57b16 mice were injected ICV (cisterna magna) or intranasally with Visudyne that was then photoconverted (Meningeal ablation) or not (Control). On the same day, EAE was induced by injected MOG 35-55 emulsion subcutaneously. At day 17 mice were scored prior to sacrifice (brain, meninges, and spinal cord were harvested for IHC to measure the amount of demyelination and the infiltrate).
EAE clinical symptom development in laser. Visudyne (i.n.)+laser and Visudyne (i.c.m.)+laser treated mice. (mean±s.e.m. n=12-41 mice/group pooled from 3 independent experiments, ****p<0.0001, repeated measures 2 way ANOVA with Tukey's multiple comparisons test) is shown in FIG. 51A. Incidence of EAE development (day mice reach a score of 1 or above) in laser, Visudyne (i.n.)+laser and Visudyne (i.c.m.)+laser treated mice. Representative dot plots of CD4 and CD8 T cells in the spinal cord of laser and Visudyne (i.c.m.)+laser mice during late onset EAE (D17) are shown in FIG. 51C. Quantification of the number of CD4 T cells in the spinal cord of laser and Visudyne (i.c.m.)+laser treated mice at D17 post immunization. (mean±s.e.m. n=4/5 mice per group, representative of 2 independent experiments, **p=0.005, unpaired t test) is shown in FIG. 51D. […] Accordingly, it is contemplated that ablation of lymphatic vessels in accordance with some embodiments herein can ameliorate symptoms and disease development of MS, for which EAE (MOG) is a model.

[3] = tested on: meningeal lymphatic vessels; assay: Visudyne meningeal lymphatic ablation, Aβ42 drainage and efflux (Example 1); assay type: in vivo, C57BL/6 mice; settings: vs vehicle
Method: Visudyne (verteporfin) or vehicle (as control) were injected into the cisterna magna (intra-cisterna magna, ICM) of anesthetized adult C57BL/6 mice (3 months of age), followed by a photoconversion step that was achieved by shining a non-thermal red light (689 nm) in 5 points above the skull. 7 days after the initial procedure, Aβ42-HiLyte647 (1 μg) was stereotaxically injected (coordinates from bregma, AP=+1.5 mm, ML=−1.5 mm, DV=+2.5 mm) into the brain parenchyma. 1 h post injection, mice were transcardially perfused with saline and meninges, deep cervical lymph nodes (dcLNs) and brain were collected for analysis. Meningeal whole-mounts (scale bar, 1 mm) from vehicle (FIG. 23A) or visudyne (FIG. 23B) injected groups were stained for lymphatic vessel, endothelial hyaluronan receptor 1 (LYVE-1, green) and the blood vascular endothelial cell marker CD31 (red). Visudye alone is shown in the inset in the upper right corner of FIGS. 23A and 23B. […] Aβ42 alone is shown in the inset in the upper right corner of each of FIGS. 23E and 23F, and LYVE-1 alone is shown in the inset in the lower right corner of each of FIGS. 23E and 23F. Coronal brain sections (100 μm thick), both rostral and caudal to the injection site, were stained for glial fibrillary acidic protein (GFAP). […] Results are presented as mean±s.e.m. in FIGS. 23C, D, and G; n=6 in vehicle group and n=5 in visudyne group; *P<0.05. **P<0.01, one-tailed Mann-Whitney test; representative of 2 independent experiments).

[4] = tested on: meningeal lymphatics; assay: Photoablation of meningeal lymphatics, Visudyne 5 or 20 μg, 690 nm laser (FIG. 14); assay type: in vivo, mice; settings: 5 or 20 μg i.c.v., 24 hrs post-ablation
Method: Meninges were stained for Lyve-1, Prox1 and CD31 24 hrs post-ablation. […] In FIG. 14C, the top panel refers to a control, the middle mane refers to 20,000 ng of Visudyne, and the bottom panel refers to 5,000 ng of Visudyne.

Substance: verteporfin [Visudyne]
- MWM probe and reversal [1]: No differences
- latency to find the platform, 4th day of the acquisition phase of the MWM [1]: Significant differences
- EAE disease development ([2]; Visudyne (i.c.m.)+laser vs laser and Visudyne (i.n.)+laser): ameliorate disease development
- MOG-specific T cell activation in the deep cervical lymph nodes ([2]; Visudyne (i.c.m.)+laser vs laser, EAE): ameliorates MOG-specific T cell activation
- EAE score / disease severity ([2]; Visudyne ICV (cisterna magna) or intranasal, photoconverted vs not, scored day 17): decreases disease severity
- drainage of Aβ42 in dcLNs ([3]; 1 h after Aβ42-HiLyte647 (1 μg) injection into brain parenchyma, 7 days post ablation): significantly less drainage
- efflux of Aβ42 from the brain (area fraction occupied by the fluorescent peptide) ([3]; 1 h after Aβ42-HiLyte647 injection, 7 days post ablation): decreased efflux
- area of LYVE-1+ vessels (meningeal whole-mounts) ([3]; visudyne ICM + photoconversion 689 nm, adult mice, 7 days after): significant decrease
- coverage by CD31+ vessels (meningeal whole-mounts) ([3]; visudyne ICM + photoconversion, 7 days after): no changes
- effect on the blood vessels (CD31) [4]: No effect on the blood vessels
- meningeal lymphatics in superior sagittal and transverse sinuses (Lyve-1, Prox1) [4]: Disruption of lymphatics
